This passage reports AC50 results from ChEMBL document CHEMBL5291721, “A preclinical secondary pharmacology resource illuminates target-adverse drug reaction associations of marketed drugs” (Nat Commun, 2023).

For experiment [1], the target named is Adenosine receptor A2a (Homo sapiens, UniProt P29274).
In experiment [2] the target is Voltage-gated inwardly rectifying potassium channel KCNH2 (Homo sapiens, UniProt Q12809). In kind it is functional.
The target in experiment [3] is Acetylcholinesterase (Homo sapiens, UniProt P22303). It is filed as functional.
Sequence of Acetylcholinesterase (P22303 whole entry): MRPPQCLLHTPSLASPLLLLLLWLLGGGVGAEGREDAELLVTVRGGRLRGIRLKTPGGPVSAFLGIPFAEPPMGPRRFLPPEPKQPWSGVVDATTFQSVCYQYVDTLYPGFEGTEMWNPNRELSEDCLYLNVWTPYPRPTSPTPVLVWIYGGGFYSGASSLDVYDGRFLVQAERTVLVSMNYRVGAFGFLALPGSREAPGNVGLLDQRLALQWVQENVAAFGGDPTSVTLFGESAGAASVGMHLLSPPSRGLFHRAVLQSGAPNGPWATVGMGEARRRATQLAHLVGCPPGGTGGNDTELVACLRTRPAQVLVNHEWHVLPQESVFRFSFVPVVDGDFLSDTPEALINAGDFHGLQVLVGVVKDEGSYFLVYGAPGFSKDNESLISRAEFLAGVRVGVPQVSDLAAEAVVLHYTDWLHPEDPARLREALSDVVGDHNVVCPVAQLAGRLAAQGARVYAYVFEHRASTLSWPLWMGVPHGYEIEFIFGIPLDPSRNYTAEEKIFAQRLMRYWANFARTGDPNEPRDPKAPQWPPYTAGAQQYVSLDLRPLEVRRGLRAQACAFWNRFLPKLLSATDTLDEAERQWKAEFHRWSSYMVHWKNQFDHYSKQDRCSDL
For experiment [4], the target named is T1, Alpha-2A adrenergic receptor (Homo sapiens, UniProt P08913).
T1 sequence (P08913 whole entry): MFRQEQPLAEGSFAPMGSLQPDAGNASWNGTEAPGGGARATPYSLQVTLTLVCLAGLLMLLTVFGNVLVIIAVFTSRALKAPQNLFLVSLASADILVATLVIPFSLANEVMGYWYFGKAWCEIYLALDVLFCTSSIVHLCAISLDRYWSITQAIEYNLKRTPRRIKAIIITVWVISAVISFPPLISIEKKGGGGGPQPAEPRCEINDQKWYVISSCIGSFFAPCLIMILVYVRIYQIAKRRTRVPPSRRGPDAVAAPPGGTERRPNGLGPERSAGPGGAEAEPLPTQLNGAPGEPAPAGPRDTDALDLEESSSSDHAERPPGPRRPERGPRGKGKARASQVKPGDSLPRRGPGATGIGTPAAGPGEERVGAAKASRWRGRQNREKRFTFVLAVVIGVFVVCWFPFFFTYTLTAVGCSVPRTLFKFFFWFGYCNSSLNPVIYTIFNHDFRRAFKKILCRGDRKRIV

Experiment [5] concerns the target T2, Muscarinic acetylcholine receptor M2 (Homo sapiens, UniProt P08172).
T2 sequence (P08172 whole entry): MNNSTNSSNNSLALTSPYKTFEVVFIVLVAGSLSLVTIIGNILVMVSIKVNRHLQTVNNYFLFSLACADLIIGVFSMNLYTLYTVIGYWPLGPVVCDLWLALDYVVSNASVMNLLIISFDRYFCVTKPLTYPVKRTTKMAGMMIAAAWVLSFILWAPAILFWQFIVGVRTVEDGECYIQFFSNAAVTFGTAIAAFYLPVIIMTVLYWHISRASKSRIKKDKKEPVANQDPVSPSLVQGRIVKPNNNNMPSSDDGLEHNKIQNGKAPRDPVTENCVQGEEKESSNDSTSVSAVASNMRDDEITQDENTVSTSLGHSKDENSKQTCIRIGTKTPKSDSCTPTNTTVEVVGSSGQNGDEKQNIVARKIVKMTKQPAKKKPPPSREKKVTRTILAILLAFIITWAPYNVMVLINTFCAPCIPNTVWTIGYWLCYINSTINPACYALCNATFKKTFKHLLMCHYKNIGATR

The target of experiment [6] is Prothrombin (Homo sapiens, UniProt P00734). It is filed as functional.
The target in experiment [7] is Histamine H3 receptor (Homo sapiens, UniProt Q9Y5N1).
The target of experiment [8] is T3, 5-hydroxytryptamine receptor 1A (Homo sapiens, UniProt P08908).
T3 sequence (P08908 whole entry): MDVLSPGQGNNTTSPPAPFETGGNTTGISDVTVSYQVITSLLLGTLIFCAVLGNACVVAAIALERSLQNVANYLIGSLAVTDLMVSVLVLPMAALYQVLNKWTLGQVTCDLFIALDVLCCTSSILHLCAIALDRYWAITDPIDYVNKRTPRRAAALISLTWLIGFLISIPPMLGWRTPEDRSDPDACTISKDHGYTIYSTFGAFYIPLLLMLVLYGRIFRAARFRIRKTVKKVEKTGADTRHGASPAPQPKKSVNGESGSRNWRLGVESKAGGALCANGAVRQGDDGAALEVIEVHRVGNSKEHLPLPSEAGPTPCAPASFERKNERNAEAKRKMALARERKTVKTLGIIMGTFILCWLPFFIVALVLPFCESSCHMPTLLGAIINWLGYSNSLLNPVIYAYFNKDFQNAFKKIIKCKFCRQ

The target of experiment [9] is 5-hydroxytryptamine receptor 2B (Homo sapiens, UniProt P41595). It is filed as functional, cell-based.
Sequence of 5-hydroxytryptamine receptor 2B (P41595 whole entry): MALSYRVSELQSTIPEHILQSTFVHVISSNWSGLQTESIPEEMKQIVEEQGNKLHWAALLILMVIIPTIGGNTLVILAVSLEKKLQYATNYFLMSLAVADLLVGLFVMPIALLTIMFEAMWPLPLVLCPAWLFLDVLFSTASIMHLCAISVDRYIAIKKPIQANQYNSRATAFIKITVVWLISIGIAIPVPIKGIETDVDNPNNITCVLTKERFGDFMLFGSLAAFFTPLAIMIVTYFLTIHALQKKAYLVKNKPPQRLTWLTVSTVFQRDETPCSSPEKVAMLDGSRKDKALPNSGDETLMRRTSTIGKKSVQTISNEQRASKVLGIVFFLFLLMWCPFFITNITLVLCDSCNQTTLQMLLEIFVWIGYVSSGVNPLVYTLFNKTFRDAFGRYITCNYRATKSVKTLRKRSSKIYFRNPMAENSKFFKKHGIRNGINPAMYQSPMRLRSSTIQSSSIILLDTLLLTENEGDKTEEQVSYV
The target in experiment [10] is T4, Amine oxidase [flavin-containing] A (Homo sapiens, UniProt P21397).
T4 sequence (P21397 whole entry): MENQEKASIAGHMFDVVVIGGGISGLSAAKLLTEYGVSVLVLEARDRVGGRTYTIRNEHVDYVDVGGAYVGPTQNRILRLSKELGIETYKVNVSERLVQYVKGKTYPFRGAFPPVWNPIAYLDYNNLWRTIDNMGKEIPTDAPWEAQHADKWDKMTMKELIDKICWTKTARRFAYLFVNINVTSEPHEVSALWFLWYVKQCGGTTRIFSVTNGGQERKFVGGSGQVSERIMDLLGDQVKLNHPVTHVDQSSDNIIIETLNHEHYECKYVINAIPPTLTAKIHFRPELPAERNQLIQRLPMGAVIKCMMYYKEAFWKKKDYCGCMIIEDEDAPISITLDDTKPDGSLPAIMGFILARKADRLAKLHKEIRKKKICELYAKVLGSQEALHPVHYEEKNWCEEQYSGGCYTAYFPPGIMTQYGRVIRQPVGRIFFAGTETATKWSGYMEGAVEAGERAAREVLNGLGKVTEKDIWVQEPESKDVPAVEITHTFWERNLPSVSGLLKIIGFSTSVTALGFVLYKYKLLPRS
In kind it is functional.

Experiment [11] concerns the target cGMP-inhibited 3',5'-cyclic phosphodiesterase 3A (Homo sapiens, UniProt Q14432). In kind it is functional.
The target in experiment [12] is 3',5'-cyclic-AMP phosphodiesterase 4A (Homo sapiens, UniProt P27815). In kind it is functional.
Sequence of 3',5'-cyclic-AMP phosphodiesterase 4A (P27815 whole entry): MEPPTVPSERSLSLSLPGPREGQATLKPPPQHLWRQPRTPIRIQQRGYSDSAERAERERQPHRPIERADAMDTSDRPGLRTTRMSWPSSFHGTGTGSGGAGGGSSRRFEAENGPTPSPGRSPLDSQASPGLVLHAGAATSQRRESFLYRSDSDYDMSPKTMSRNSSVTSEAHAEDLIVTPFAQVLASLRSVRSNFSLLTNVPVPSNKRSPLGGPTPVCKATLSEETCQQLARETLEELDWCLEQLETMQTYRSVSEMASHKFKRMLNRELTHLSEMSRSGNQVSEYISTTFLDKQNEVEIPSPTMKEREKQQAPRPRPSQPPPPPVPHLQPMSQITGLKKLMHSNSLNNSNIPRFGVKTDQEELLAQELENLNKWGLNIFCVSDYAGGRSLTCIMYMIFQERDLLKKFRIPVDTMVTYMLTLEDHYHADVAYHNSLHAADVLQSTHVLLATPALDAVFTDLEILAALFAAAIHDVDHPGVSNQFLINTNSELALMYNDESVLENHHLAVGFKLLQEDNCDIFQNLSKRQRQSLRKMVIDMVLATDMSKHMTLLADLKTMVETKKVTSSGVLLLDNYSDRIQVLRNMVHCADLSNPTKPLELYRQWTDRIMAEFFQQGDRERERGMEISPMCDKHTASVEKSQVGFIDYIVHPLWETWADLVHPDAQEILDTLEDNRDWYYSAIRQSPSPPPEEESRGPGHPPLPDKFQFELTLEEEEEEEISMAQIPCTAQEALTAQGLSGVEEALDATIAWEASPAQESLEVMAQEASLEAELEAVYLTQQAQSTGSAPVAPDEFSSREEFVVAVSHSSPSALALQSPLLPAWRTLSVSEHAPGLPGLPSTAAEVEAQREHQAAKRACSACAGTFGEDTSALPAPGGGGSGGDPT
Experiment [13] deals with Sodium-dependent dopamine transporter (Homo sapiens, UniProt Q01959).
For experiment [14], the target named is T5, Thromboxane A2 receptor (Homo sapiens, UniProt P21731).
T5 sequence (P21731 whole entry): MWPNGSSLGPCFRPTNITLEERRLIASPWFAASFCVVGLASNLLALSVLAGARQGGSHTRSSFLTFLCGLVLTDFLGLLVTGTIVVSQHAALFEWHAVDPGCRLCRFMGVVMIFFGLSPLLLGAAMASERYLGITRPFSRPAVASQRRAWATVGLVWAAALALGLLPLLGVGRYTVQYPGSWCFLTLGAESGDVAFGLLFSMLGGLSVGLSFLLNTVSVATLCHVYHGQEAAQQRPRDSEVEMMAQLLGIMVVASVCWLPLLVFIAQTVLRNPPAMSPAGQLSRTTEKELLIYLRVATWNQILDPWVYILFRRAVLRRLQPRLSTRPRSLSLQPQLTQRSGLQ
In kind it is functional, cell-based.

In experiment [15] the target is T5, Thromboxane A2 receptor. In kind it is functional, cell-based. This is another data set of the same source.

Some results are limits rather than exact numbers.
Further: assay procedure not described here.

Sequence of cGMP-inhibited 3',5'-cyclic phosphodiesterase 3A (Q14432 whole entry): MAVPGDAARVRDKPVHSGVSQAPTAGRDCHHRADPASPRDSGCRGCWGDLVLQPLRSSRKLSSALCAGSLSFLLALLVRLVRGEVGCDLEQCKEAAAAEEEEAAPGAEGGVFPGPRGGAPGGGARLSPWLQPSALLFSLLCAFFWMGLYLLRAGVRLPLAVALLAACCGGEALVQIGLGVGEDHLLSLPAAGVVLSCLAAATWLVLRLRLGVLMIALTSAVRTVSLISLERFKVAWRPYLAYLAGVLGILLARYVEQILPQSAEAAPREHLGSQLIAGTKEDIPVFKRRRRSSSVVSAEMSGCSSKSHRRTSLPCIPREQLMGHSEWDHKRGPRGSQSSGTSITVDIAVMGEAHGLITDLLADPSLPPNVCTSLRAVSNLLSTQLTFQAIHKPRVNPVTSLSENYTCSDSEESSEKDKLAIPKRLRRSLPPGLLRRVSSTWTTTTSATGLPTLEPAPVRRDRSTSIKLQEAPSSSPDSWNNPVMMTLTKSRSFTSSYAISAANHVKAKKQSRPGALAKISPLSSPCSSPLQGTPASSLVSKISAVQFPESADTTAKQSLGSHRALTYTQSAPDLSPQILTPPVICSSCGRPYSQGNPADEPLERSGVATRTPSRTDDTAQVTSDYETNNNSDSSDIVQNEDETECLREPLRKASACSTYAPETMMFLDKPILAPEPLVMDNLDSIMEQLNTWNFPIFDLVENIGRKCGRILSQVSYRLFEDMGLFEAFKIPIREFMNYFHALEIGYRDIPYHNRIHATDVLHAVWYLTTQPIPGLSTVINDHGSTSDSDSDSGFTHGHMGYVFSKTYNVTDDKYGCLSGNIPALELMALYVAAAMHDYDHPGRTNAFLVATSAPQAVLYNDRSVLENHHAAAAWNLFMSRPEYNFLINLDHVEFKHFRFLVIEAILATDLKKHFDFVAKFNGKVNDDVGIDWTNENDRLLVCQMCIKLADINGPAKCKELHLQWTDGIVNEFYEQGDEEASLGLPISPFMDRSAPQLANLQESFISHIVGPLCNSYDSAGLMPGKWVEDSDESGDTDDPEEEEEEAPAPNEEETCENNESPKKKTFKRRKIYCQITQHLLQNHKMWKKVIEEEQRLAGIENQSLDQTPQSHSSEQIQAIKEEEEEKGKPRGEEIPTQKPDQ
Sequence of Voltage-gated inwardly rectifying potassium channel KCNH2 (Q12809 whole entry): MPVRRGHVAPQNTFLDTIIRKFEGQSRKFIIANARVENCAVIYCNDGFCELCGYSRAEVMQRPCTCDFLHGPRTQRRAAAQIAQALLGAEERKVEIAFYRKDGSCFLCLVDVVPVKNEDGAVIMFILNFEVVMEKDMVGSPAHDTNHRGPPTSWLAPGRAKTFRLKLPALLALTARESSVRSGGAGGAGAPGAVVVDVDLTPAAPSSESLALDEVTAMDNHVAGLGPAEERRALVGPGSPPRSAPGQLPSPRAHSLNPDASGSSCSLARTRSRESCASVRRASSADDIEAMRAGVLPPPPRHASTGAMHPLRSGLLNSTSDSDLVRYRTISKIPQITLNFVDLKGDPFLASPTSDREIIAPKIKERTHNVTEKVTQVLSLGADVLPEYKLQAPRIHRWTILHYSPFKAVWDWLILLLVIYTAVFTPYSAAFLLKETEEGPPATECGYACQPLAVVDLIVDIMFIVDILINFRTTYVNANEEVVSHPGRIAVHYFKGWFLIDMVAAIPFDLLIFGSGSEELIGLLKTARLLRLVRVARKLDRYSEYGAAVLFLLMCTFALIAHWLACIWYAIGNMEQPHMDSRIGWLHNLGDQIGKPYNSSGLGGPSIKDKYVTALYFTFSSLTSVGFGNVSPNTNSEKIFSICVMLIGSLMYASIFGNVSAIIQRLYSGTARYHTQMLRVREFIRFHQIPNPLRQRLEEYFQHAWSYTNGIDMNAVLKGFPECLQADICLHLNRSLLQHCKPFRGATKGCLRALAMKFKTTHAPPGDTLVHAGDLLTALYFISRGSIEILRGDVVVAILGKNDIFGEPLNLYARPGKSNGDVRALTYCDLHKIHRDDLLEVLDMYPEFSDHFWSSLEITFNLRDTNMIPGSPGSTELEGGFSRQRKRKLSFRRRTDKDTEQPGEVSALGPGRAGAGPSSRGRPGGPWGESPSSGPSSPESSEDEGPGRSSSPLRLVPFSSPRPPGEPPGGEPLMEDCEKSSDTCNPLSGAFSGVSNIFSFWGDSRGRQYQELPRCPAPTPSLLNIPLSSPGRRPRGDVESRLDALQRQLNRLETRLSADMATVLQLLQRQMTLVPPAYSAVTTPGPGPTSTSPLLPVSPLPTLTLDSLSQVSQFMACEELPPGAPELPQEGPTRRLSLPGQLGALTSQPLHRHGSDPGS
Sequence of Adenosine receptor A2a (P29274 whole entry): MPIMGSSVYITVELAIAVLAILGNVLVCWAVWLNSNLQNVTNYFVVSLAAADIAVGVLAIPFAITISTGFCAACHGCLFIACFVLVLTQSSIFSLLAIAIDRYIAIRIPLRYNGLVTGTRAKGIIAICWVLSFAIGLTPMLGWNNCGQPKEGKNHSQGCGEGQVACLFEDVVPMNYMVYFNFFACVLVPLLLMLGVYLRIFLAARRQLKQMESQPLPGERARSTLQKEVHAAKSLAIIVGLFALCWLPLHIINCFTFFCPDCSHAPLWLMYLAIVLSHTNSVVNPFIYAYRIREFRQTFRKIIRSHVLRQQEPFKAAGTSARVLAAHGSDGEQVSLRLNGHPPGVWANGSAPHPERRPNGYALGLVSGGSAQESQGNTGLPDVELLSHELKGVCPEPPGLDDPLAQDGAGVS

By AC50 is commonly meant the concentration giving half of the maximal activity seen. Read a low AC50 as activity at low concentration. Turning to `C[N+](C)(C)CCOP(=O)([O-])OC[C@H](O)CO`, the AC50 in experiment [1] and in experiment [2] was over 30 µM in each case.

In the case of `C[C@H](N[C@@H](CCc1ccccc1)C(=O)O)C(=O)N1Cc2ccccc2C[C@H]1C(=O)O`, the AC50 in experiment [3], in [4], in experiment [5], in experiment [6], in experiment [7] and in experiment [8] was over 30 µM throughout. Besides, the AC50 in experiment [9], in [10], in experiment [11], in experiment [12], in experiment [13] and in experiment [14] was over 30 µM throughout. In experiment [15], this compound came in with an AC50 of over 30 µM.

In experiment [1], `CN(C)C/C=C/C(=O)Nc1cc2c(Nc3ccc(F)c(Cl)c3)ncnc2cc1O[C@H]1CCOC1` [AFATINIB] had an AC50 of over 30 µM.

As for `CC1(C)S[C@@H]2[C@H](/N=C/N3CCCCCC3)C(=O)N2[C@H]1C(=O)O` [AMDINOCILLIN], the AC50 in [3], in experiment [4], in [5], in experiment [6], in experiment [7] and in experiment [8] was over 30 µM in each case. Moreover, the AC50 in experiment [9], in experiment [10], in experiment [11], in experiment [12], in experiment [13] and in experiment [14] was over 30 µM throughout. Also, the AC50 in [15] is over 30 µM.

As for `CC(=O)[C@]1(N)Cc2c(O)c3c(c(O)c2[C@@H](O[C@H]2C[C@H](O)[C@H](O)CO2)C1)C(=O)c1ccccc1C3=O` [AMRUBICIN], the AC50 in experiment [3], in experiment [4], in experiment [5], in experiment [6], in experiment [7] and in experiment [8] was over 30 µM in each case. Further, the AC50 in experiment [9] was over 30 µM; in [10] it was over 30 µM; in experiment [11], over 30 µM; in [12], over 30 µM; in experiment [13] it was over 30 µM; in [14], 11.8 µM. The AC50 in [15] is over 1 µM.

Consider `CC(=O)OC[C@H]1O[C@@H](n2ncc(=O)[nH]c2=O)[C@H](OC(C)=O)[C@@H]1OC(C)=O` [AZARIBINE], for which the AC50 in experiment [3], in experiment [4], in [5], in experiment [6], in experiment [7] and in experiment [8] was over 30 µM throughout. For the same compound, the AC50 in experiment [9], in experiment [10], in [11], in [12], in experiment [13] and in experiment [14] was over 30 µM in each case. This compound also registered an AC50 in [15] of over 30 µM.

Take `CC1=C(C(=O)OC(C)C)C(c2cccc([N+](=O)[O-])c2)C(C(=O)OC2CN(C(c3ccccc3)c3ccccc3)C2)=C(N)N1` (stereo not given) [AZELNIDIPINE]: the AC50 in experiment [1] and in experiment [2] was over 30 µM throughout.

Take `O=C(O)COCCN1CCN(C(c2ccccc2)c2ccc(Cl)cc2)CC1` (stereo not given) [CETIRIZINE]: the AC50 in experiment [1], in [4], in experiment [6], in experiment [7], in experiment [8] and in [10] was over 30 µM each time. Besides, the AC50 in experiment [11], in [12], in [14] and in experiment [15] was over 30 µM in each case.

In the case of `CN[C@]1(c2ccccc2Cl)CCCCC1=O` [ESKETAMINE], the AC50 in experiment [1] and in [2] was over 30 µM throughout.

In the case of `CNCCc1ccc(OC(=O)C(C)C)c(OC(=O)C(C)C)c1` [IBOPAMINE], the AC50 in experiment [1] and in experiment [2] was over 30 µM each time.

Consider `CCOC(=O)C1=C(C)NC(C)=C(C(=O)OCC)C1c1ccccc1/C=C/C(=O)OC(C)(C)C` [LACIDIPINE], for which the AC50 in [1] is over 30 µM; in experiment [2] it was 17.8 µM.

With `COC(=O)C1=C(C)NC(C)=C(C(=O)OCCN2CCN(C(c3ccccc3)c3ccccc3)CC2)C1c1cccc([N+](=O)[O-])c1` (stereo not given) [MANIDIPINE 6300], the AC50 in [1] is over 30 µM; in experiment [2], 0.82 µM.

As to `O=C1c2cccc3c2[C@H](CCC3)CN1[C@@H]1CN2CCC1CC2` [PALONOSETRON], the AC50 is over 30 µM in experiment [1] and 0.89 µM in [2].

On to `OC[C@H]1O[C@@H](n2cnc3c2NC=NC[C@H]3O)C[C@@H]1O` [PENTOSTATIN], for which the AC50 was 3.4 µM in experiment [1] and over 30 µM in experiment [2].

As for `NNCCc1ccccc1` [PHENELZINE], the AC50 is over 30 µM in experiment [3]; 25.4 µM in experiment [4]; over 30 µM in [5]; over 30 µM in [6]; over 30 µM in experiment [7]; over 30 µM in experiment [9]. In addition, the AC50 in [2], in experiment [11], in experiment [12], in experiment [13], in experiment [14] and in [15] was over 30 µM each time.

On to `Cc1cccc(C)c1NC(=O)CC12CCCN1CCC2` [PILSICAINIDE], for which, in experiment [1], the AC50 was over 30 µM.

Turning to `CCCN1CC(NS(=O)(=O)N(CC)CC)CC2Cc3c(O)cccc3CC21` (stereo not given) [QUINAGOLIDE], the values for the AC50 in experiment [1] and in [2] were over 30 µM and 6.5 µM, respectively.

Turning to `C[C@]12CCC(=O)C[C@@H]1CC[C@@H]1[C@@H]2CC[C@]2(C)[C@@H](O)CC[C@@H]12` [STANOLONE], the AC50 in experiment [1] and in experiment [2] was over 30 µM in each case.

With `O=C1OC(OC(=O)c2cccnc2Nc2cccc(C(F)(F)F)c2)c2ccccc21` (stereo not given) [TALNIFLUMATE], the AC50 in [1] and in [2] was over 30 µM throughout.

On to `CCOC(=O)c1c(CSc2ccccc2)n(C)c2cc(Br)c(O)c(CN(C)C)c12` [UMIFENOVIR], for which the results for the AC50 in experiment [1] and in experiment [2] were 23 µM and 0.61 µM, respectively.
